Several values for one entry are separate records, joined by “and”; a condition that tells them apart may be missing. Equal values may be shown once. Read-outs that look alike come from different tables or passages of the source.
How the values were obtained:
Sprague-Dawley rats = experiment: In vivo sedative/hypnotic testing, IV bolus, rats; design: species or system rat; settings: rats
Protocol: Animals were housed in a dedicated room at the vivarium of VivoPath Inc., located at Redstone Center, 55 Union Street, Worcester, Mass. Housing and care was as specified in the USDA Animal Welfare Act (9 CFR, Parts 1, 2, and 3) and as described in the Guide for the Care and Use of Laboratory Animals from the National Research Council. Environmental conditions of housing rooms are set at the following ranges: temperature: 70±7° F. (22±4° C.), humidity: 50±20%, light cycle: 12-hour light/12-hour dark cycle—lights on at 7 am and off at 7 pm., air changes: ten or more air changes per hour with 100% fresh air. The animals' body weights were measured prior to the first dose on each experimental day.
Adult male Sprague-Dawley rats (225-300 g) were purchased from Harlan (South Easton, Mass.).
Drugs were prepared in either dimethylsulfoxide/saline or saline vehicle or hydroxypropyl-β-cyclodextrin (20% in water, pH 7.0) solution and were administered as an intravenous bolus injection. Animals received 1-4 doses of drug(s) during an experimental day, either ascending doses or different drugs. Doses were administered at intervals equal to the longer of 1 h or 10-times the duration of apparent sedative/hypnotic effects from the previous dose. The sedative/hypnotic properties of the drugs were evaluated by observation of the rats, ranging from mild excitation, mild sedation apparent due to reduced activity, and moderate sedation to hypnosis reflected by loss of righting reflex (LORR, the ability to place rear and hind legs under the body, as well as attenuation/loss of nociceptive reflexes).

[1] = target: T1, human α1(L264T), β2 and γ2L subunits of the GABAA receptor (Homo sapiens, UniProt P14867+P47870, L291T); experiment: GABAA receptor current in Xenopus oocytes, 2-electrode voltage clamp; assay type: cell-based
T1 construct: expressed in transfected cells; host or cells: Xenopus oocytes
Protocol: Cyclopropyl-MOC-metomidate induces anesthesia by acting as a positive allosteric modulator of the γ-aminobutyric acid (GABA) type A (GABAA) receptor. Cyclopropyl-MOC-metomidate and its principle metabolite, CPM-acid, were evaluated for their ability to potentiate activation of GABAA receptor current in Xenopus oocytes expressing the human α1(L264T), β2 and γ2L subunits of the GABAA receptor using established methods (Ge et al., 2011). The […] mutant was used rather than wild-type GABAA receptor because it is directly activated by anesthetics, allowing a simpler assessment of the drug potency without the need for concomitant activation by GABA. Anesthetic potency on this mutated GABAA receptor is similar to that on wild-type receptors. Currents were recorded using conventional 2-electrode voltage clamp technique at a holding potential of −50 mV. Oocytes were placed in a 0.04-mL recording chamber and constantly perfused at a rate of 4-6 mL/min. The current response to ABP-700 or CPM-acid was normalized to that produced by 100 μM GABA in the same oocyte and data presented as mean±SD from 3-6 oocytes.

beagle dogs = system: beagle dogs
Protocol: A pilot study was conducted in dogs to assess anesthesia induced by cyclopropyl-MOC-metomidate continuous infusion without a bolus induction dosing. Two dogs received cyclopropyl-MOC-metomidate as a 1 mg/kg/min IV infusion without prior bolus administration.
Anesthesia induction was determined using the methods described above.
Etomidate was administered to dogs at IV bolus doses ranging from 0.25 to 2 mg/kg. Anesthesia in the dogs was measured as described above. […] The bolus dose of 2 mg/kg was adopted to induce anesthesia prior to subsequent continuous infusions.
Propofol was administered to dogs as an IV bolus dose of 5 mg/kg to induce anesthesia followed by a continuous infusion at 0.4 mg/kg/min.

[2] = Pharmacokinetics in dogs, IV bolus and bolus plus infusion; assay type: in vivo, dog
[3] = in vivo
GABAA receptor channel = experiment: radioligand binding to the GABAA receptor channel; settings: 10 μM
[4] = dogs, 4 mg/kg bolus or bolus plus 0.5 mg/kg/min for 30 or 120 minutes

T1 sequence (P14867 28-456 L291T): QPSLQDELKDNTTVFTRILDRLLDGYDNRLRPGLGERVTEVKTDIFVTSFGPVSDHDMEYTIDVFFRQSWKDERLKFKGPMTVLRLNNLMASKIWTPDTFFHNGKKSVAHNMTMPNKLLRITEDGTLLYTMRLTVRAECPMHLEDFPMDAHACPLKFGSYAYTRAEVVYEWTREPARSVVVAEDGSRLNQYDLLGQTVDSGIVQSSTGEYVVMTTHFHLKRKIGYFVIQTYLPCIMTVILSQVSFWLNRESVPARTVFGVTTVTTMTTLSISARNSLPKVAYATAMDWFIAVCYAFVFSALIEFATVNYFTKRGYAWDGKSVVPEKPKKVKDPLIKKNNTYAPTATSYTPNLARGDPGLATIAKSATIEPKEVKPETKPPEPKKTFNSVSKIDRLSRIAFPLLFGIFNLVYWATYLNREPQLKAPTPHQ
T1 sequence (P47870 25-512 limits assumed): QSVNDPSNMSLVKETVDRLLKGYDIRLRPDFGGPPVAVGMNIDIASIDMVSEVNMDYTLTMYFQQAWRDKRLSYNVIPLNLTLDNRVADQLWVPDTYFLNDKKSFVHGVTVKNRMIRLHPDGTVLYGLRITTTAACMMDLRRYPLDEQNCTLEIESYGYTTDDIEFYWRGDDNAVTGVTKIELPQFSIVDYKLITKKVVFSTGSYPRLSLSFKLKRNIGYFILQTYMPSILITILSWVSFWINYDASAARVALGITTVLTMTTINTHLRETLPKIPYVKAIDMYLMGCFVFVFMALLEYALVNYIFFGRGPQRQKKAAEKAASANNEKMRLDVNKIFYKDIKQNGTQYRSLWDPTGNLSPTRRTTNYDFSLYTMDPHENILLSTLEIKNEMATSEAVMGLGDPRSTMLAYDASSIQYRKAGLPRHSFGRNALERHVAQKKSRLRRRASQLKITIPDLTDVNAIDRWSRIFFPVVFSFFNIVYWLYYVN
T1 sequence (P18507 40-475 partner): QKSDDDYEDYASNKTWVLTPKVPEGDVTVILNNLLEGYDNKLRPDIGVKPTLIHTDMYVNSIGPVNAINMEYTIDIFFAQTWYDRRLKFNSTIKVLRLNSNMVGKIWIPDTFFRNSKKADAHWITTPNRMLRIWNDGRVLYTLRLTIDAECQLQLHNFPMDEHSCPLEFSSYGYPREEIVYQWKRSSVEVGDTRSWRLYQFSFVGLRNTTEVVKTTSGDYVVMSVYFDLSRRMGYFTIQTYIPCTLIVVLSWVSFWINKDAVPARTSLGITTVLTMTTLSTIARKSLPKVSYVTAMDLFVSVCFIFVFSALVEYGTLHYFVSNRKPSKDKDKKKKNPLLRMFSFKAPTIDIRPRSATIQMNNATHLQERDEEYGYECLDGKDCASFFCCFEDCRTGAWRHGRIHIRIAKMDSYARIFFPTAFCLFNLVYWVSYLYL

COC(=O)C1(OC(=O)c2cncn2[C@H](C)c2ccccc2)CC1 [Cyclopropyl- methoxycarbonyl metomidate, cyclopropyl-methoxycarbonyl metomidate]
slope of duration of LORR vs logarithm of dose (Sprague-Dawley rats): approximately 10 | EC50 [1]: 5.8 ± 1.1 µM | concentration having minimal effects on current [1]: ~0.3 µM | minimum effective continuous infusion dose rate (infusion MED) (beagle dogs; dogs): approximately 0.5 mg/kg/min | emergence from anesthesia (beagle dogs; [4]): approximately 5 minutes | recovery of apparently normal behavior (beagle dogs; [4]): 10 to 12 min | minimally effective anesthetic dose (MED) (beagle dogs; dogs, IV bolus): approximately 1 mg/kg | duration of anesthesia (beagle dogs; dogs, bolus dose of 3 or 4 mg/kg): 3 to 6 min | context dependence of recovery from anesthesia (beagle dogs; dogs, bolus vs 30- or 120-minute infusion): context-independent | anesthesia onset after initiation of infusion (beagle dogs; two dogs, 1 mg/kg/min IV infusion without bolus): 2.5 to 4.0 min | first-phase decline of levels ([2]; IV bolus 0.25-12 mg/kg, first 5-10 minutes): > 10 fold | venous blood concentration when sedated/anesthetized ([2]; bolus and continuous infusion, listed as cyclopropyl-MOC-metomidate): > 250 ng/mL and > 0.8 μM | concentration at 24 h ([2]; both sexes, dog, in vivo, IV bolus, read-out: level in 24-hour PK samples (below level of quantification)): < 0.1 ng/mL | half-life ([2]; both sexes, dog, in vivo, IV bolus, read-out: secondary terminal elimination half-life): 5 to 10 min | half-life ([2]; dog, in vivo, read-out: half-life of secondary phase of decline after infusion): ~20 min | decline of levels after discontinuation of infusion ([2]; first 10-30 minutes after infusion): ~50 fold | plasma concentrations associated with anesthesia [3]: 200 to 3000 nM | effect on binding of [3H]-flunitrazepam (GABAA receptor channel): no effect | effect on binding of [3H]-muscimol (GABAA receptor channel): no effect
